Source: US11535643B2, “Macrolides with modified desosamine sugars and uses thereof” (President and Fellows of Harvard College, priority 2015, dated 2022)
In brackets after ≈: the same amount, converted by molar mass. Like-named read-outs stand apart in the source and are kept apart here.

Key:
Type in all cases: cell-based
[1] = test system: K. pneumoniae; assay: Broth dilution MIC determination (CLSI) against K. pneumoniae strains; conditions: for MIC: Klebsiella pneumoniae
Method in brief: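 CLSI broth-dilution MICs across a panel including multidrug- and macrolide-resistant strains, with azithromycin and solithromycin as control compounds.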

[2] = test system: A. baumannii; assay: Broth dilution MIC determination (CLSI) against A. baumannii strains; conditions: for MIC: Acinetobacter baumannii
Method in brief: (§1)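 Strains, including multidrug-resistant and macrolide-resistant ones, were exposed to macrolides in broth dilution per CLSI standards, and the lowest inhibiting concentration was recorded as MIC. Azithromycin and solithromycin were run alongside.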

[3] = test system: E. coli; assay: Broth dilution MIC determination (CLSI) against E. coli strains; conditions: for MIC: Escherichia coli
Method in brief: as §1

[4] = test system: S. pneumoniae; assay: Broth dilution MIC determination (CLSI) against S. pneumoniae strains; conditions: for MIC: Streptococcus pneumoniae
Method in brief: as §1

[5] = test system: H. influenzae; assay: Broth dilution MIC determination (CLSI) against H. influenzae strains; conditions: for MIC: Haemophilus influenzae
Method in brief: as §1

[6] = test system: S. aureus; assay: Broth dilution MIC determination (CLSI) against S. aureus strains; conditions: for MIC: Staphylococcus aureus
Method in brief: as §1

[7] = test system: E. faecalis; assay: Broth dilution MIC determination (CLSI) against E. faecalis strains; conditions: for MIC: Enterococcus faecalis
Method in brief: as §1

[8] = test system: S. pyogenes; assay: Broth dilution MIC determination (CLSI) against S. pyogenes strains; conditions: for MIC: Streptococcus pyogenes
Method in brief: as §1

[9] = test system: P. aeruginosa; assay: Broth dilution MIC determination (CLSI) against P. aeruginosa strains
Method in brief: as §1

CCC1OC(=O)C(C)C(=O)C(C)C(OC2OC(Cn3cc(-c4cnc(N)s4)nn3)CC(N(C)C)C2O)C(C)(OC)CC(C)CNC(C)C2N(CCCCn3cc(-c4cccc(N)c4)nn3)C(=O)OC12C (stereo not drawn) [FSM-22373]
MIC K. pneumoniae ATCC10031 ([1]; ATCC10031): >32 µg/mL | MIC K. pneumoniae KPC-2 ([1]; KPC-2): >32 µg/mL | MIC K. pneumoniae SHV-12 ([1]; SHV-12): >32 µg/mL | MIC K. pneumoniae TEM-10 ([1]; TEM-10): 32 µg/mL (≈ 32.2 µM) | MIC A. baumannii ATCC19606 ([2]; ATCC19606): >32 µg/mL | MIC A. baumannii IMP-4 ([2]; IMP-4): >32 µg/mL | MIC A. baumannii chromosomal class C ([2]; chromosomal class C): >32 µg/mL | MIC A. baumannii imipenem-resistant ([2]; imipenem-resistant): >32 µg/mL | MIC E. coli ATCC25922 ([3]; ATCC25922): >32 µg/mL | MIC E. coli CTX-M-14 ([3]; CTX-M-14): >32 µg/mL | MIC E. coli NDM-1 ([3]; NDM-1): >32 µg/mL | MIC E. coli TEM-1 ([3]; TEM-1): >32 µg/mL | MIC S. pneumoniae ATCC49619 ([4]; ATCC49619): <0.03125 µg/mL | MIC S. pneumoniae erm B + mef A genotype ([4]; erm B + mef A genotype): 32 µg/mL | MIC S. pneumoniae erm B + tet(M, O) genotype ([4]; erm B + tet(M, O) genotype): <0.03125 µg/mL | MIC H. influenzae ATCC49247 ([5]; ATCC49247): >32 µg/mL | MIC H. influenzae erythro > 4, azithro 1 ([5]; erythro > 4, azithro 1): 16 µg/mL (≈ 16.1 µM) | MIC S. aureus ATCC29213 ([6]; ATCC29213): >32 µg/mL | MIC S. aureus MRSA: USA100 ([6]; MRSA: USA100): >32 µg/mL | MIC S. aureus MRSA: USA300 ([6]; MRSA: USA300): >32 µg/mL | MIC S. aureus USA600, GISA ([6]; USA600, GISA): >32 µg/mL | MIC S. aureus erm A genotype ([6]; erm A genotype): >32 µg/mL | MIC E. faecalis ATCC29212 ([7]; ATCC29212): 32 µg/mL (≈ 32.2 µM) | MIC E. faecalis Vancomycin-resistant ([7]; Vancomycin-resistant): >32 µg/mL | MIC S. pyogenes ATCC19615 ([8]; ATCC19615): 8 µg/mL (≈ 8.05 µM) | MIC S. pyogenes macrolide-resistant ([8]; macrolide-resistant): >32 µg/mL | MIC P. aeruginosa ATCC27853 ([9]; ATCC27853): >32 µg/mL | MIC P. aeruginosa HPA101-1477 ([9]; HPA101-1477): >32 µg/mL

CC[C@H]1OC(=O)[C@H](C)C(=O)[C@H](C)[C@@H](O[C@@H]2OC(CNC=N)CC(N(C)C)C2O)[C@](C)(OC)C[C@@H](C)CN[C@H](C)[C@H]2N(CCCCn3cc(-c4cccc(N)c4)nn3)C(=O)O[C@]12C (stereo partly drawn) [FSM-21861]
MIC ([1]; ATCC10031, read-out: MIC K. pneumoniae ATCC10031): 16 µg/mL (≈ 18.4 µM) | MIC ([1]; read-out: MIC K. pneumoniae KPC-2): > 32 µg/mL | MIC ([2]; ATCC19606, read-out: MIC A. baumannii ATCC19606): > 32 µg/mL | MIC ([2]; read-out: MIC A. baumannii imipenem-resistant): > 32 µg/mL | MIC ([3]; ATCC25922, ATCC25922, read-out: MIC E. coli ATCC25922): > 32 µg/mL | MIC ([3]; read-out: MIC E. coli NDM-1, NDM-1): > 32 µg/mL | MIC ([4]; ATCC49619, ATCC49619, read-out: MIC S. pneumoniae ATCC49619): 0.5 µg/mL (≈ 0.575 µM) | MIC ([4]; read-out: MIC S. pneumoniae erm B + mef A genotype, erm B + mef A genotype): 32 µg/mL | MIC ([4]; read-out: MIC S. pneumoniae erm B + tet(M, O) genotype, erm B + tet(M, O) genotype): 0.25 µg/mL | MIC ([4]; read-out: MIC S. pneumoniae mef A genotype, mef A genotype): 8 µg/mL (≈ 9.19 µM) | MIC ([4]; read-out: MIC S. pneumoniae mef A genotype, mef A genotype, first of two such columns (c3)): 4 µg/mL (≈ 4.6 µM) | MIC ([5]; ATCC49247, read-out: MIC H. influenzae ATCC49247): 32 µg/mL (≈ 36.8 µM) | MIC ([5]; read-out: MIC H. influenzae erythro > 4, azithro 1): 32 µg/mL (≈ 36.8 µM) | MIC ([6]; ATCC29213, read-out: MIC S. aureus ATCC29213): > 32 µg/mL | MIC ([6]; MRSA / USA100, read-out: MIC S. aureus MRSA: USA100): > 32 µg/mL | MIC ([6]; MRSA / USA300, read-out: MIC S. aureus MRSA: USA300): > 32 µg/mL | MIC ([6]; USA600, read-out: MIC S. aureus USA600, GISA): > 32 µg/mL | MIC ([6]; read-out: MIC S. aureus erm A genotype): > 32 µg/mL | MIC ([7]; ATCC29212, read-out: MIC E. faecalis ATCC29212): 4 µg/mL (≈ 4.6 µM) | MIC ([7]; read-out: MIC E. faecalis Vancomycin-resistant): > 32 µg/mL | MIC ([8]; ATCC19615, read-out: MIC S. pyogenes ATCC19615): 0.5 µg/mL (≈ 0.575 µM) | MIC ([8]; read-out: MIC S. pyogenes macrolide-resistant): 8 µg/mL (≈ 9.19 µM) | MIC ([9]; Pseudomonas aeruginosa, ATCC27853, read-out: MIC P. aeruginosa ATCC27853): > 32 µg/mL
